Data as given in the NIST ThermoML archive (doi:10.1016/j.tca.2017.04.014).

Experiment: molar heat capacity at constant pressure; xn = mol fraction of the nth substance listed
Conditions: 101.3 kPa, Crystal, DSC

[O-2].[O-2].[Th+4] [thorium dioxide] + [O-2].[O-2].[U+4]
molar heat capacity at constant pressure [J/K/mol]
Conditions | x1 = 0.3 | x1 = 0.5 | x1 = 0.6 | x1 = 0.7 | x1 = 0.8 | x1 = 0.9 | x1 = 1
300 K | 73.2 | 70.4 | 67.7 | 66.6 | 66.7 | 65.1 | 62.1
310 K | 73.7 | 71.8 | 69.3 | 67.6 | 67.3 | 66.4 | 61.8
320 K | 75.6 | 72.6 | 70.2 | 68.6 | 67.9 | 67.5 | 62.8
330 K | 75.9 | 73.8 | 71 | 69.3 | 69.1 | 68 | 63.5
340 K | 76.7 | 75.1 | 71.9 | 69.9 | 69.7 | 69 | 64.2
350 K | 78 | 76.1 | 72.6 | 70.4 | 70.8 | 70.1 | 65.1
360 K | 78.6 | 76.8 | 73.3 | 70.8 | 72.1 | 71.7 | 65.6
370 K | 78.9 | 77 | 74.5 | 71.4 | 72.3 | 71.7 | 65.9
380 K | 79.8 | 77.5 | 75.1 | 72 | 72.3 | 72 | 66.8
390 K | 80.2 | 79 | 75.8 | 72.9 | 74.1 | 73 | 67.3
400 K | 80.8 | 79.3 | 76.4 | 73.9 | 74.8 | 73.8 | 67.7
410 K | 81.3 | 79.6 | 76.8 | 73.8 | 74.8 | 74.4 | 68
420 K | 81.5 | 80.3 | 77.3 | 75.1 | 75.4 | 74.1 | 68.4
430 K | 82.1 | 81.2 | 77.5 | 75.5 | 75.9 | 74.4 | 68.6
440 K | 82.3 | 81.2 | 77.9 | 75.8 | 76.4 | 74.9 | 68.9
450 K | 83.3 | 82.1 | 78.6 | 75.7 | 76.9 | 76 | 69.6
460 K | 83.7 | 82.2 | 79.4 | 75.8 | 77.2 | 76.2 | 69.8
470 K | 83.9 | 82.8 | 79.5 | 76.2 | 77.5 | 76.7 | 70.1
480 K | 84 | 83.5 | 80.2 | 76.6 | 77.3 | 77 | 70.2
490 K | 84.5 | 83 | 80 | 77.9 | 78 | 77 | 70.5
500 K | 84.9 | 83.8 | 80.7 | 78.1 | 78.8 | 77 | 70.7
510 K | 85.5 | 84.1 | 80.7 | 77.9 | 78.6 | 78.3 | 70.9
520 K | 85.3 | 84.8 | 81 | 78.3 | 79 | 78.6 | 71.2
530 K | 85.5 | 84.5 | 81 | 78.4 | 79.6 | 78.6 | 71.4
540 K | 86.4 | 85 | 81.5 | 78.9 | 79.7 | 78.9 | 71.7
550 K | 86.6 | 85.1 | 82.9 | 79.6 | 80 | 78.9 | 71.9
560 K | 86.7 | 85.8 | 82.8 | 79.8 | 80.2 | 79.1 | 72
570 K | 86.7 | 86.2 | 82.8 | 80.3 | 80.1 | 79.7 | 72.1
580 K | 87.1 | 85.6 | 83.4 | 80.5 | 80.2 | 79.7 | 72.3
590 K | 87.4 | 86.7 | 83.4 | 80.6 | 80.5 | 79.7 | 72.5
600 K | 88 | 87 | 83.7 | 80.6 | 80.6 | 79.7 | 72.5
610 K | 87.5 | 86.6 | 84.4 | 80.6 | 80.6 | 79.7 | 72.5
620 K | 88 | 86.9 | 84.8 | 81.2 | 80.6 | 79.9 | 73
630 K | 88.5 | 87.5 | 84.2 | 81.4 | 81.1 | 80.2 | 73
640 K | 88.7 | 87.2 | 85.1 | 81.5 | 81.1 | 80.5 | 73.3
650 K | 88.9 | 87.3 | 85.1 | 82 | 80.9 | 80.7 | 73.6
660 K | 89 | 87.6 | 84.9 | 81.8 | 81.6 | 79.7 | 73.5
670 K | 88.9 | 88.3 | 85.8 | 82.3 | 81.9 | 79.7 | 73.6
680 K | 89.4 | 88.2 | 86.4 | 82.4 | 81.5 | 79.7 | 73.6
690 K | 90.2 | 88.2 | 86.4 | 82.4 | 81.6 | 79.9 | 73.4
700 K | 90.4 | 88.6 | 86.4 | 83.3 | 81.7 | 80.2 | 73.8
710 K | 91.2 | 89.5 | 86.4 | 83.3 | 82.2 | 80.5 | 74.5
720 K | 91.9 | 89.2 | 86.7 | 83.3 | 82.4 | 80.7 | 74.5
730 K | 92.2 | 90.1 | 87.3 | 83.3 | 82.7 | 81.2 | 74.6
739 K | – | – | – | – | – | – | 74.7
740 K | 92.9 | 90.4 | 87.7 | 83.3 | 82.7 | 81.4 | –
750 K | 93.1 | 91 | 87.8 | 83.6 | 82.7 | 81.3 | 74.6
760 K | 93.5 | 91 | 89.1 | 83.9 | 82.9 | 81.5 | 75
770 K | 94 | 91.7 | 89.1 | 84.3 | 82.8 | 81.5 | 75.3
780 K | 94.2 | 91.8 | 89.1 | 84.5 | 83.1 | 81 | 75.3
790 K | 94.3 | 92.3 | 89.1 | 84.9 | 83 | 81.8 | 75.3
800 K | 94.4 | 92.3 | 89.1 | 84.9 | 83.3 | 81.3 | 75.7
810 K | 95 | 92.7 | 89.8 | 85.3 | 83.1 | 82.3 | 75.7
820 K | 95.3 | 92 | 90.2 | 85.7 | 83.2 | 82.3 | 75.7
830 K | 95.6 | 92.8 | 89.5 | 86 | 83.3 | 82.3 | 75.9
840 K | 96 | 92.9 | 90.3 | 86 | 83.5 | 82.3 | 76
850 K | 96.1 | 93.2 | 90.7 | 86 | 83.6 | 82.3 | 76.1
860 K | 96.1 | 93.4 | 90.7 | 86 | 83.7 | 83.4 | 76.4
870 K | 96.3 | 93.8 | 90.8 | 86.4 | 84 | 83.9 | 76.1
